Experimental data: patent US8952024B2, “Herbicidal pyrimidone derivatives” (E I du Pont de Nemours and Company, priority 2009, dated 2015)

How the values were obtained:
Format in all cases: in vivo
[1] = system: canarygrass (Phalaris minor); assay: Test B postemergence plant response; conditions: Postemergence
Procedure, shortened: (§1)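 Visual ratings from 0 (no effect) to 100 (complete control), made against controls 13–15 days after treatment, kept in a greenhouse. Compounds were applied postemergence to potted plants at the 1- to 4-leaf stage (2–18 cm).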

[2] = system: windgrass (Apera spica-venti); assay: Test B postemergence plant response; conditions: Postemergence
Procedure, shortened: as §1

[3] = system: chickweed (Stellaria media); assay: Test B postemergence plant response; conditions: Postemergence
Procedure, shortened: as §1

[4] = system: winter barley (Hordeum vulgare); assay: Test B postemergence plant response; conditions: Postemergence
Procedure, shortened: as §1

[5] = system: morningglory (Ipomoea spp.); assay: Test A pre-/postemergence plant response
Procedure, shortened: (§2)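 Injury was scored visually after roughly ten days against untreated controls, 0 = no effect, 100 = complete control. Test chemicals in a surfactant-containing non-phytotoxic solvent were sprayed either onto soil preemergence or onto one- to two-leaf, 2–10 cm plants postemergence.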

[6] = system: giant foxtail (Setaria faberii); assay: Test A pre-/postemergence plant response
Procedure, shortened: as §2

[7] = system: wheat (Triticum aestivum); assay: Test A pre-/postemergence plant response
Procedure, shortened: as §2

[8] = system: pigweed (Amaranthus retroflexus); assay: Test A pre-/postemergence plant response
Procedure, shortened: as §2

corn (Zea mays) = assay: Test A pre-/postemergence plant response; conditions: for Corn plant response rating: visual injury, 0 to 100 scale (0 no effect, 100 complete control), approx. ten days
Procedure, shortened: as §2

[9] = system: large crabgrass (Digitaria sanguinalis); assay: Test A pre-/postemergence plant response; conditions: for Crabgrass, Large plant response rating: visual injury, 0 to 100 scale (0 no effect, 100 complete control), approx. ten days
Procedure, shortened: as §2

[10] = system: barnyardgrass (Echinochloa crus-galli); assay: Test A pre-/postemergence plant response; conditions: for Barnyardgrass plant response rating: visual injury, 0 to 100 scale (0 no effect, 100 complete control), approx. ten days
Procedure, shortened: as §2

[11] = system: velvetleaf (Abutilon theophrasti); assay: Test A pre-/postemergence plant response
Procedure, shortened: as §2

[12] = 31 g ai/ha, 0 to 100 scale (0 no effect, 100 complete control)
[13] = 62 g ai/ha, scale 0 to 100 (0 no effect, 100 complete control)
[14] = 125 g ai/ha, scale 0 (no effect) to 100 (complete control), 13 to 15 days
[15] = 250 g ai/ha, scale 0 to 100 (0 no effect, 100 complete control), 13 to 15 days
[16] = Postemergence, 125 g ai/ha, visual injury, 0 to 100 scale (0 no effect, 100 complete control), approx. ten days
[17] = Postemergence, 500 g ai/ha, visual injury, 0 to 100 scale (0 no effect, 100 complete control), approx. ten days
[18] = Preemergence, 125 g ai/ha, 0 to 100 scale where 0 is no effect and 100 is complete control, approximately ten days
[19] = Preemergence, 500 g ai/ha, 0 to 100 scale, 0 = no effect, 100 = complete control
[20] = Postemergence, 125 g ai/ha, 0 to 100 scale where 0 is no effect and 100 is complete control

## CCCCn1c(-c2cc(F)cc(F)c2)ncc(C(=O)C2=C(O)C3CCC(C3)C2=O)c1=O (stereo not drawn) [Compound 245]
[1]; [12]
  Plant response rating, Canarygrass: 80
[1]; [13]
  Plant response rating, Canarygrass: 95
[1]; [14]
  Plant response rating, Canarygrass: 100
[1]; [15]
  Plant response rating, Canarygrass: 100
[2]; [12]
  Plant response rating, Windgrass: 65
[2]; [13]
  Plant response rating, Windgrass: 70
[2]; [14]
  Plant response rating, Windgrass: 95
[2]; [15]
  Plant response rating, Windgrass: 98
[3]; [12]
  Plant response rating, Chickweed: 80
[3]; [13]
  Plant response rating, Chickweed: 85
[3]; [14]
  Plant response rating, Chickweed: 100
[3]; [15]
  Plant response rating, Chickweed: 100
[4]; [12]
  Plant response rating, Barley: 45
[4]; [13]
  Plant response rating, Barley: 85
[4]; [14]
  Plant response rating, Barley: 85
[4]; [15]
  Plant response rating, Barley: 95
[5]; [16]
  Plant response rating, Morningglory: 100
[5]; [17]
  Morningglory plant response rating: 100
[5]; [18]
  Plant response rating, Morningglory: 20
[5]; [19]
  Plant response rating, Morningglory: 60
[6]; [16]
  Plant response rating, Foxtail, Giant: 100
[6]; [17]
  Foxtail, Giant plant response rating: 100
[6]; [18]
  Plant response rating, Foxtail, Giant: 80
[6]; [19]
  Plant response rating, Foxtail, Giant: 90
[7]; [16]
  Plant response rating, Wheat: 40
[7]; [17]
  Wheat plant response rating: 80
[7]; [18]
  Plant response rating, Wheat: 0
[7]; [19]
  Plant response rating, Wheat: 20
[8]; [16]
  Plant response rating, Pigweed: 100
[8]; [17]
  Pigweed plant response rating: 100
[8]; [18]
  Plant response rating, Pigweed: 80
[8]; [19]
  Plant response rating, Pigweed: 90
Corn (Zea mays); [20]
  Plant response rating, Corn: 40
Corn (Zea mays); Postemergence, 500 g ai/ha
  Corn plant response rating: 90
Corn (Zea mays); [18]
  Plant response rating, Corn: 0
Corn (Zea mays); [19]
  Plant response rating, Corn: 20
[9]; [20]
  Plant response rating, Crabgrass, Large: 90
[9]; Postemergence, 500 g ai/ha
  Crabgrass, Large plant response rating: 90
[9]; [18]
  Plant response rating, Crabgrass, Large: 80
[9]; [19]
  Plant response rating, Crabgrass, Large: 100
[10]; [20]
  Plant response rating, Barnyardgrass: 90
[10]; Postemergence, 500 g ai/ha
  Barnyardgrass plant response rating: 100
[10]; [18]
  Plant response rating, Barnyardgrass: 40
[10]; [19]
  Plant response rating, Barnyardgrass: 100
[11]; [16]
  Plant response rating, Velvetleaf: 100
[11]; [17]
  Velvetleaf plant response rating: 100
[11]; [18]
  Plant response rating, Velvetleaf: 70
[11]; [19]
  Plant response rating, Velvetleaf: 100

## CCc1ccccc1-n1c(-c2ccccc2)ncc(C(=O)C2=C(O)CCCC2=O)c1=O [Compound 255]
[1]; [12]
  Plant response rating, Canarygrass: 50
[1]; [13]
  Plant response rating, Canarygrass: 50
[1]; [14]
  Plant response rating, Canarygrass: 50
[1]; [15]
  Plant response rating, Canarygrass: 60
[2]; [12]
  Plant response rating, Windgrass: 50
[2]; [13]
  Plant response rating, Windgrass: 80
[2]; [14]
  Plant response rating, Windgrass: 80
[2]; [15]
  Plant response rating, Windgrass: 95
[3]; [12]
  Plant response rating, Chickweed: 95
[3]; [13]
  Plant response rating, Chickweed: 98
[3]; [14]
  Plant response rating, Chickweed: 100
[3]; [15]
  Plant response rating, Chickweed: 100
[4]; [12]
  Plant response rating, Barley: 30
[4]; [13]
  Plant response rating, Barley: 35
[4]; [14]
  Plant response rating, Barley: 35
[4]; [15]
  Plant response rating, Barley: 50
[5]; [16]
  Plant response rating, Morningglory: 100
[5]; [17]
  Morningglory plant response rating: 100
[5]; [18]
  Plant response rating, Morningglory: 40
[5]; [19]
  Plant response rating, Morningglory: 60
[6]; [16]
  Plant response rating, Foxtail, Giant: 90
[6]; [17]
  Foxtail, Giant plant response rating: 90
[6]; [18]
  Plant response rating, Foxtail, Giant: 0
[6]; [19]
  Plant response rating, Foxtail, Giant: 50
[7]; [16]
  Plant response rating, Wheat: 10
[7]; [17]
  Wheat plant response rating: 50
[7]; [18]
  Plant response rating, Wheat: 0
[7]; [19]
  Plant response rating, Wheat: 0
[8]; [16]
  Plant response rating, Pigweed: 90
[8]; [17]
  Pigweed plant response rating: 100
[8]; [18]
  Plant response rating, Pigweed: 70
[8]; [19]
  Plant response rating, Pigweed: 90
Corn (Zea mays); [20]
  Plant response rating, Corn: 30
Corn (Zea mays); Postemergence, 500 g ai/ha
  Corn plant response rating: 70
Corn (Zea mays); [18]
  Plant response rating, Corn: 0
Corn (Zea mays); [19]
  Plant response rating, Corn: 0
[9]; [20]
  Plant response rating, Crabgrass, Large: 90
[9]; Postemergence, 500 g ai/ha
  Crabgrass, Large plant response rating: 100
[9]; [18]
  Plant response rating, Crabgrass, Large: 20
[9]; [19]
  Plant response rating, Crabgrass, Large: 90
[10]; [20]
  Plant response rating, Barnyardgrass: 90
[10]; Postemergence, 500 g ai/ha
  Barnyardgrass plant response rating: 100
[10]; [18]
  Plant response rating, Barnyardgrass: 10
[10]; [19]
  Plant response rating, Barnyardgrass: 100
[11]; [16]
  Plant response rating, Velvetleaf: 100
[11]; [17]
  Velvetleaf plant response rating: 100
[11]; [18]
  Plant response rating, Velvetleaf: 60
[11]; [19]
  Plant response rating, Velvetleaf: 100
